Target: Telomerase reverse transcriptase (Homo sapiens, UniProt O14746)
Assay: Inhibition of telomerase (unknown origin)

Sequence of Telomerase reverse transcriptase (O14746 whole entry): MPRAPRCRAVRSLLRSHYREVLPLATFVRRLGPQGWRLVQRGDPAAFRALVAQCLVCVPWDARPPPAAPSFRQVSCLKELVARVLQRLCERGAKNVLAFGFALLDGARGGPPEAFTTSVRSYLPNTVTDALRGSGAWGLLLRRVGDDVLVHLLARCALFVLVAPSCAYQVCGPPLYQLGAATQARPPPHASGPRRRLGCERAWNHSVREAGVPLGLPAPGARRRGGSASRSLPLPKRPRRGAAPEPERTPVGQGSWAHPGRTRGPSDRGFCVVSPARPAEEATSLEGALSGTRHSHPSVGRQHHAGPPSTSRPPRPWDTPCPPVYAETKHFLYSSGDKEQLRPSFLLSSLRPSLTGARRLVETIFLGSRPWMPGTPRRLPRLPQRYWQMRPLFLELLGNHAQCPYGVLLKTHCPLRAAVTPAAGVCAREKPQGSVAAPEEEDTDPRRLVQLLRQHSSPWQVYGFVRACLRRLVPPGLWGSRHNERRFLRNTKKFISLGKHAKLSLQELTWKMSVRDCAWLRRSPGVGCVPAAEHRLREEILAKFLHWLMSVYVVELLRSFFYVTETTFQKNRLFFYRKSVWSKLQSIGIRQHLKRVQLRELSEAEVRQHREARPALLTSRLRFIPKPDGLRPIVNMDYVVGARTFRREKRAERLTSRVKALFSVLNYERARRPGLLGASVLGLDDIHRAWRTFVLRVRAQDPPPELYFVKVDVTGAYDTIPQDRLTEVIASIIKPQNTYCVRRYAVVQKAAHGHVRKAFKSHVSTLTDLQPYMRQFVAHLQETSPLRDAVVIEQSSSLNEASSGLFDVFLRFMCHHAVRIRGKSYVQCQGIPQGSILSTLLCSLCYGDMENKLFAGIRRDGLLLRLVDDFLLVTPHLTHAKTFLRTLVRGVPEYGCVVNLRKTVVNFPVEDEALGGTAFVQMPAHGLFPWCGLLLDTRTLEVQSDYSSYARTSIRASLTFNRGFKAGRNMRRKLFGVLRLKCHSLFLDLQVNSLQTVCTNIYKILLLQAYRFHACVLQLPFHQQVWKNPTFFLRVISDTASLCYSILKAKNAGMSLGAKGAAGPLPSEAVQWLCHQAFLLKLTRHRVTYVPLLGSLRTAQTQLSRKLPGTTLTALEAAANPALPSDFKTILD

Compound	IC50 [nM]
CC1=C2NC(=C3CSC(=N3)c3coc(n3)-c3coc(n3)-c3coc(n3)-c3coc(n3)-c3coc(n3)-c3nc2oc3C)O1 [telomestatin]	5.01
CSc1nc(Nc2ccc3nc(C)cc(N(C)C)c3c2)nc(Nc2ccc3nc(C)cc(N(C)C)c3c2)n1	40.8
CN(C)CCCNCc1ccc2nc3ccc4cc5cc(CNCCCN(C)C)ccc5nc4c3cc2c1	28.2

From BindingDB's records for doi:10.1007/s00044-011-9594-4 (n/a, 2012)
